Each structure is given as a SMILES string. pIC50: −log10 of the molar value.

In this test the target is T1, Tyrosine-protein phosphatase non-receptor type 1 (Homo sapiens, UniProt P18031).
T1 sequence (P18031 whole entry): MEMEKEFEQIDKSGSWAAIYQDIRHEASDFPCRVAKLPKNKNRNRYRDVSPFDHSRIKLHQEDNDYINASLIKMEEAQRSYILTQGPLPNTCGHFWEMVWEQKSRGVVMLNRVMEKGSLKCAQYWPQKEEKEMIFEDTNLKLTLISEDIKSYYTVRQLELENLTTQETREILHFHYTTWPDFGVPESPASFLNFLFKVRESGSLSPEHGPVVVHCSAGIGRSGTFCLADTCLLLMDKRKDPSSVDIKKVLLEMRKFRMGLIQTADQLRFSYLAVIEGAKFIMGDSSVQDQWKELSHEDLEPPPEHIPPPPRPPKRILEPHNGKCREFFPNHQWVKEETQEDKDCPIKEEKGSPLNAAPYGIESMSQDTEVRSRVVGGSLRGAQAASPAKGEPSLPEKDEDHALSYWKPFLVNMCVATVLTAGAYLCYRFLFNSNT
Put plainly: Inhibition of recombinant PTP1B expressed in Escherichia coli BL21 after 30 mins by spectrophotometry.
Turning to `CC1(C)CC[C@]2(COC(=O)CCC(=O)O)CC[C@]3(C)C(=CC[C@@H]4[C@@]5(C)CCC(=O)C(C)(C)[C@@H]5CC[C@]43C)[C@@H]2C1`, the pIC50 was 5.34.

Turning to `CC1(C)CC[C@]2(COC(=O)c3ccccc3C(=O)O)CC[C@]3(C)C(=CC[C@@H]4[C@@]5(C)CCC(=O)C(C)(C)[C@@H]5CC[C@]43C)[C@@H]2C1`, the pIC50 was 5.51.

Take `CC1(C)CC[C@]2(COC(=O)CCCC(=O)O)CC[C@]3(C)C(=CC[C@@H]4[C@@]5(C)CCC(=O)C(C)(C)[C@@H]5CC[C@]43C)[C@@H]2C1`: the negative logarithm of the IC50 (pIC50) was 5.19.

With `CC1(C)CC[C@]2(COC(=O)CC(=O)O)CC[C@]3(C)C(=CC[C@@H]4[C@@]5(C)CCC(=O)C(C)(C)[C@@H]5CC[C@]43C)[C@@H]2C1`, the pIC50 was 5.39.

Source of the values: ChEMBL document CHEMBL1629515, “Synthesis and biological evaluation of oleanolic acid derivatives as inhibitors of protein tyrosine phosphatase 1B” (J Nat Prod, 2010).
